Data on 15 compounds can be found in US10538555B2, “Macrocyclic inhibitors of the PD-1/PD-L1 and CD80(B7-1)/PD-L1 protein/protein interactions” (BRISTOL-MYERS SQUIBB COMPANY, priority 2014, dated 2020).

pIC50: −log10 of the molar value. Read-outs that look alike come from different tables or passages of the source. Where a SMILES comes first, the peptide text is derived from it. Bridges are numbered along the chain shown (N, C = ends). [ ]: non-standard residue; d: D form. ξ: configuration not given here. Trp(1-CH2COOH) = N[C@@H](Cc1cn(CC(=O)O)c2ccccc12)C(=O)O; Phe(3,4,5-F3) = N[C@@H](Cc1cc(F)c(F)c(F)c1)C(=O)O; Trp(7-Br) = N[C@@H](Cc1c[nH]c2c(Br)cccc12)C(=O)O; NMePhe(4-F) = CN[C@@H](Cc1ccc(F)cc1)C(=O)O; ξTrp(7-aza) = NC(Cc1c[nH]c2ncccc12)C(=O)O; d(cisHyp) = O=C(O)[C@H]1C[C@@H](O)CN1; Bta = N[C@@H](Cc1csc2ccccc12)C(=O)O; NMe3Pal = CN[C@@H](Cc1cccnc1)C(=O)O; Hyp = O=C(O)[C@@H]1C[C@@H](O)CN1; NMeF = CN[C@@H](Cc1ccccc1)C(=O)O; dHyp = O=C(O)[C@H]1C[C@H](O)CN1; Cha = N[C@@H](CC1CCCCC1)C(=O)O; NMeL = CN[C@@H](CC(C)C)C(=O)O; NMehSer = CN[C@@H](CCO)C(=O)O; NMeNle = CCCC[C@H](NC)C(=O)O; dPip = O=C(O)[C@H]1CCCCN1; NMeA = CN[C@@H](C)C(=O)O; Orn = NCCC[C@H](N)C(=O)O; dThz = O=C(O)[C@H]1CSCN1; Dab = NCC[C@H](N)C(=O)O; Dap = NC[C@H](N)C(=O)O; Sar = CNCC(=O)O

This assay has as its target T1, Human PD-L1/PD-1 (Homo sapiens, UniProt Q9NZQ7).
T1 construct: TVMV protease cleavage site (C); made in house; host or cells: HEK293T cells
Put plainly: HTRF Human PD-L1/PD-1 binding assay (PD-1-Ig/PD-L1-His). The note with it: PD-L1-His 10 nM, PD-1-Ig 20 nM. Summed up:
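Compound preincubated 15 min with PD-L1-His (10 nM final), then PD-1-Ig (20 nM final) added for 15 min in dPBS with 0.1% BSA and 0.05% Tween-20. Detection by Eu-cryptate anti-Ig (1 nM) and APC anti-His (20 nM) after 30 min; 665/620 nm HTRF ratio. Proteins expressed in HEK293T.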
For orientation: Time-resolved FRET reads energy transfer from a long-lived donor to a nearby acceptor.

Setting [1] is: class symbol, read-out: HTRF Human PD-L1/PD-1 Binding Assay IC50 Range.
[2] abbreviates: read-out: HTRF Human PD-L1/PD-1 Binding Assay IC50.

T1 sequence (Q9NZQ7 with tags, fused parts or gaps): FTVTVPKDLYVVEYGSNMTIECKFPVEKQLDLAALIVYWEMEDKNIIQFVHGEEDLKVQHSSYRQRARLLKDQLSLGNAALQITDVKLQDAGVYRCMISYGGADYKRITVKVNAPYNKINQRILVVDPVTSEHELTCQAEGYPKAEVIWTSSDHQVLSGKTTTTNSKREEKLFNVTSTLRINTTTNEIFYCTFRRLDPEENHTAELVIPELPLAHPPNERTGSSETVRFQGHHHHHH

Turning to `CCCC[C@H]1C(=O)N2C[C@H](O)C[C@@H]2C(=O)N[C@@H](CC(=O)O)C(=O)N[C@@H](C(C)C)C(=O)N(C)[C@@H](Cc2ccccc2)C(=O)N[C@@H](Cc2ccc(O)cc2)C(=O)N2C[C@H](O)C[C@@H]2C(=O)N[C@@H](Cc2c[nH]c3ccccc23)C(=O)N[C@@H](Cc2ccc(O)cc2)C(=O)N[C@@H](CCCN)C(=O)N[C@H](C(=O)NCC(N)=O)CSCC(=O)N[C@@H](Cc2cc(F)c(F)c(F)c2)C(=O)N(C)[C@@H](Cc2ccccc2)C(=O)N1C` [Example 9323] ({CH2CO}-[Phe(3,4,5-F3)][NMeF][NMeNle][d(cisHyp)]DV[NMeF]Y[d(cisHyp)]WY[Orn]CG-NH2; thioether N-13), under setting [1], the pIC50 was 8.00 to 9.00.

On to `CCCC[C@H]1C(=O)N2CCC[C@@H]2C(=O)N[C@@H](CC(=O)O)C(=O)N[C@@H](C(C)C)C(=O)N(C)[C@@H](Cc2ccccc2)C(=O)N[C@@H](Cc2ccc(O)cc2)C(=O)N2CSC[C@@H]2C(=O)N[C@@H](Cc2c[nH]c3ccccc23)C(=O)N[C@@H](Cc2ccc(O)cc2)C(=O)N[C@@H](CC(C)C)C(=O)N[C@H](C(=O)NCC(N)=O)CSCC(=O)N[C@@H](Cc2cc(F)c(F)c(F)c2)C(=O)N(C)[C@@H](Cc2ccccc2)C(=O)N1C` [Example 10092] ({CH2CO}-[Phe(3,4,5-F3)][NMeF][NMeNle][dP]DV[NMeF]Y[dThz]WYLCG-NH2; thioether N-13), for which the pIC50 under setting [1] was 8.00 to 9.00.

In the case of `CCCC[C@H]1C(=O)N(C)[C@@H](CCCC)C(=O)N[C@@H](C)C(=O)N[C@H](C(=O)NCC(N)=O)CSCC(=O)N[C@@H](Cc2ccc(O)cc2)C(=O)N(C)[C@@H](C)C(=O)N[C@@H](CC(N)=O)C(=O)N2CCC[C@H]2C(=O)N[C@@H](Cc2cnc[nH]2)C(=O)N[C@@H](CCC(N)=O)C(=O)N2C[C@H](O)C[C@H]2C(=O)N[C@@H](Cc2c[nH]c3ccccc23)C(=O)N[C@@H](CO)C(=O)N[C@@H](Cc2c[nH]c3c(Br)cccc23)C(=O)N1C` [Example 1541] ({CH2CO}-Y[NMeA]NPHQ[Hyp]WS[Trp(7-Br)][NMeNle][NMeNle]ACG-NH2; thioether N-14), the pIC50 under setting [2] was 6.35.

Turning to `CCCC[C@H]1C(=O)N(C)CC(=O)N[C@@H](CC(=O)O)C(=O)N[C@@H](C)C(=O)N(C)[C@@H](Cc2ccccc2)C(=O)N[C@@H](Cc2ccc(O)cc2)C(=O)N2C[C@@H](O)C[C@@H]2C(=O)N[C@@H](Cc2c[nH]c3ccccc23)C(=O)N[C@@H](Cc2ccc(O)cc2)C(=O)N[C@@H](CC(C)C)C(=O)N[C@H](C(=O)NCC(N)=O)CSCC(=O)N[C@@H](Cc2ccccc2)C(=O)N(C)[C@@H](Cc2ccccc2)C(=O)N1C` [Example 10083] ({CH2CO}-F[NMeF][NMeNle][Sar]DA[NMeF]Y[dHyp]WYLCG-NH2; thioether N-13), the pIC50 under setting [2] was 6.80.

`CCCC[C@H]1C(=O)N(C)[C@@H](CCCC)C(=O)N[C@@H](CCC(=O)O)C(=O)N[C@H](C(=O)NCC(N)=O)CSCC(=O)N[C@@H](Cc2ccc(O)cc2)C(=O)N(C)[C@@H](C)C(=O)N[C@@H](CC(=O)O)C(=O)N2CCC[C@H]2C(=O)N[C@@H](CN)C(=O)N[C@@H](CCC(N)=O)C(=O)N2C[C@H](O)C[C@H]2C(=O)N[C@@H](Cc2c[nH]c3ccccc23)C(=O)N[C@@H](CCC(=O)O)C(=O)N[C@@H](Cc2c[nH]c3ccccc23)C(=O)N1C` [Example 5245] ({CH2CO}-Y[NMeA]DP[Dap]Q[Hyp]WEW[NMeNle][NMeNle]ECG-NH2; thioether N-14): the pIC50 under setting [1] was 8.00 to 9.00.

As to `CCCC[C@H]1C(=O)N2CCC[C@@H]2C(=O)N[C@@H](CC(=O)O)C(=O)N[C@@H](C(C)C)C(=O)N(C)[C@@H](Cc2ccccc2)C(=O)N[C@@H](CC(=O)O)C(=O)N2CCCC[C@@H]2C(=O)N[C@@H](Cc2c[nH]c3ccccc23)C(=O)N[C@@H](Cc2ccc(O)cc2)C(=O)N[C@@H](CC(C)C)C(=O)N[C@H](C(=O)NCC(N)=O)CSCC(=O)N[C@@H](Cc2cc(F)c(F)c(F)c2)C(=O)N(C)[C@@H](Cc2ccc(F)cc2)C(=O)N1C` [Example 10570] ({CH2CO}-[Phe(3,4,5-F3)][NMePhe(4-F)][NMeNle][dP]DV[NMeF]D[dPip]WYLCG-NH2; thioether N-13), the pIC50 under setting [1] is 8.00 to 9.00.

Consider `CCCC[C@H]1C(=O)N(C)[C@@H](CCOC)C(=O)N[C@@H](CO)C(=O)N[C@H](C(=O)NCC(N)=O)CSCC(=O)N[C@@H](Cc2ccc(O)cc2)C(=O)N(C)[C@@H](C)C(=O)N[C@@H](CC(N)=O)C(=O)N2CCC[C@H]2C(=O)N[C@@H](Cc2c[nH]cn2)C(=O)N[C@@H](CCC(N)=O)C(=O)N2C[C@H](O)C[C@H]2C(=O)N[C@@H](Cc2c[nH]c3ccccc23)C(=O)N[C@@H](CO)C(=O)N[C@@H](Cc2c[nH]c3ccccc23)C(=O)N1C` [Example 10144] ({CH2CO}-Y[NMeA]NPHQ[Hyp]WSW[NMeNle][NMehSer](Me)SCG-NH2; thioether N-14), for which, under setting [1], the pIC50 was 8.00 to 9.00.

As to `CCCC[C@H]1C(=O)N(C)[C@@H](CCCC)C(=O)N[C@@H](CC(C)C)C(=O)N[C@H](C(=O)O)CSCC(=O)N[C@@H](Cc2ccc(O)cc2)C(=O)N(C)[C@@H](C)C(=O)N[C@@H](CC(N)=O)C(=O)N2CCC[C@H]2C(=O)N[C@@H](CN)C(=O)N[C@@H](CC(C)C)C(=O)N2C[C@H](O)C[C@H]2C(=O)N[C@@H](Cc2c[nH]c3ccccc23)C(=O)N[C@@H](CCCN)C(=O)N[C@@H](Cc2cn(CC(=O)O)c3ccccc23)C(=O)N1C` [Example 5199] ({CH2CO}-Y[NMeA]NP[Dap]L[Hyp]W[Orn][Trp(1-CH2COOH)][NMeNle][NMeNle]LC-OH; thioether N-14), the pIC50 under setting [1] was 8.00 to 9.00.

As for `CCCC[C@H]1C(=O)N2CCC[C@@H]2C(=O)N[C@@H](CN)C(=O)N[C@@H](C(C)C)C(=O)N(C)[C@@H](Cc2ccccc2)C(=O)N[C@@H](Cc2ccc(O)cc2)C(=O)N2CSC[C@@H]2C(=O)N[C@@H](Cc2c[nH]c3ccccc23)C(=O)N[C@@H](Cc2ccc(O)cc2)C(=O)N[C@@H](CC(C)C)C(=O)N[C@H](C(=O)NCC(N)=O)CSCC(=O)N[C@@H](Cc2ccccc2)C(=O)N(C)[C@@H](Cc2ccccc2)C(=O)N1C` [Example 10071] ({CH2CO}-F[NMeF][NMeNle][dP][Dap]V[NMeF]Y[dThz]WYLCG-NH2; thioether N-13), under setting [1], the pIC50 is 7.00 to 8.00.

As for `CCCC[C@H]1C(=O)N(C)CC(=O)N[C@@H](CC(=O)O)C(=O)N[C@@H](C(C)C)C(=O)N(C)[C@@H](Cc2ccccc2)C(=O)N[C@@H](Cc2ccc(O)cc2)C(=O)N(C)CC(=O)NC(C)(Cc2c[nH]c3ccccc23)C(=O)N[C@@H](Cc2ccc(O)cc2)C(=O)N[C@@H](CC(C)C)C(=O)N[C@H](C(=O)NCC(N)=O)CSCC(=O)N[C@@H](Cc2ccccc2)C(=O)N(C)[C@@H](Cc2ccccc2)C(=O)N1C` (single isomer, unassigned) [Example 3640-A], under setting [1], the pIC50 is 6.00 to 7.00.

On to `CCCC[C@H]1C(=O)N(C)[C@@H](CCCC)C(=O)N[C@@H](CCC(=O)O)C(=O)N[C@H](C(=O)NCC(N)=O)CSCC(=O)N[C@@H](Cc2ccc(OC)cc2)C(=O)N(C)[C@@H](C)C(=O)N[C@@H](CC(N)=O)C(=O)N2CCC[C@H]2C(=O)N[C@@H](Cc2cnc[nH]2)C(=O)N[C@@H](CCCCN)C(=O)N2C[C@H](O)C[C@H]2C(=O)N[C@@H](Cc2c[nH]c3ccccc23)C(=O)N[C@@H](CCN)C(=O)N[C@@H](Cc2c[nH]c3ccccc23)C(=O)N1C` [Example 7118] ({CH2CO}-Y(Me)[NMeA]NPHK[Hyp]W[Dab]W[NMeNle][NMeNle]ECG-NH2; thioether N-14), for which, under setting [1], the pIC50 was 8.00 to 9.00.

In the case of `CCCC[C@H]1C(=O)N(C)[C@@H](CCCC)C(=O)N[C@@H](CCC(=O)O)C(=O)N[C@H](C(=O)NCC(N)=O)CSCC(=O)N[C@@H](Cc2ccc(O)cc2)C(=O)N(C)[C@@H](C)C(=O)N[C@@H](CC(N)=O)C(=O)N2CCC[C@H]2C(=O)N[C@@H](Cc2c[nH]cn2)C(=O)N[C@@H](CCC(N)=O)C(=O)N2C[C@H](O)C[C@H]2C(=O)N[C@@H](Cc2c[nH]c3ccccc23)C(=O)N[C@@H](CCN)C(=O)N[C@@H](Cc2c[nH]c3ccccc23)C(=O)N1C` [Example 5223] ({CH2CO}-Y[NMeA]NPHQ[Hyp]W[Dab]W[NMeNle][NMeNle]ECG-NH2; thioether N-14), the pIC50 under setting [1] was 8.00 to 9.00.

Regarding `CCCC[C@H]1C(=O)N(C)CC(=O)N[C@@H](CC(=O)O)C(=O)N[C@@H](C(C)C)C(=O)N(C)[C@@H](Cc2ccccc2)C(=O)N[C@@H](Cc2ccc(O)cc2)C(=O)N(C)CC(=O)NC(Cc2c[nH]c3ncccc23)C(=O)N[C@@H](Cc2ccc(O)cc2)C(=O)N[C@@H](CC(C)C)C(=O)N[C@H](C(=O)NCC(N)=O)CSCC(=O)N[C@@H](CC2CCCCC2)C(=O)N(C)[C@@H](Cc2ccccc2)C(=O)N1C` (stereo partly drawn) [Example 3240] ({CH2CO}-[Cha][NMeF][NMeNle][Sar]DV[NMeF]Y[Sar][ξTrp(7-aza)]YLCG-NH2; thioether N-13), the pIC50 under setting [1] is 6.00 to 7.00.

Consider `CCCC[C@H]1C(=O)N(C)[C@@H](CCCC)C(=O)N(C)[C@@H](CC(C)C)C(=O)N[C@H](C(=O)NCC(N)=O)CSCC(=O)N[C@@H](Cc2ccc(O)cc2)C(=O)N(C)[C@@H](C)C(=O)N[C@@H](CC(N)=O)C(=O)N2CCC[C@H]2C(=O)N[C@@H](Cc2c[nH]cn2)C(=O)N[C@@H](CCC(=O)O)C(=O)N2C[C@H](O)C[C@H]2C(=O)N[C@@H](Cc2c[nH]c3ccccc23)C(=O)N[C@@H](CCN)C(=O)N[C@@H](Cc2csc3ccccc23)C(=O)N1C` [Example 5264] ({CH2CO}-Y[NMeA]NPHE[Hyp]W[Dab][Bta][NMeNle][NMeNle][NMeL]CG-NH2; thioether N-14), for which the pIC50 under setting [1] was 5.00 to 6.00.

In the case of `CCCC[C@H]1C(=O)N(C)CC(=O)N[C@@H](CC(N)=O)C(=O)N[C@@H](C(C)C)C(=O)N(C)[C@@H](Cc2ccccc2)C(=O)N[C@@H](Cc2ccc(O)cc2)C(=O)N(C)CC(=O)N[C@@H](Cc2c[nH]c3ccccc23)C(=O)N[C@@H](Cc2ccc(O)cc2)C(=O)N[C@@H](CCCN)C(=O)N[C@H](C(=O)NCC(N)=O)CSCC(=O)N[C@@H](Cc2ccccc2)C(=O)N(C)[C@@H](Cc2cccnc2)C(=O)N1C` [Example 3614] ({CH2CO}-F[NMe3Pal][NMeNle][Sar]NV[NMeF]Y[Sar]WY[Orn]CG-NH2; thioether N-13), under setting [1], the pIC50 was 7.00 to 8.00.
